Measurements published in patent publication US20180153830A1, “SELECTIVE INHIBITORS OF UNDIFFERENTIATED CELLS” (Yissum Research Development Company of the Hebrew …, priority 2012, published 2018).
Read-outs that look alike come from different tables or passages of the source.

Columns and labels:
Assay type in all cases: cell-based
[1] = tested on: iPS-derived cardiomyocytes; test: CellTiter-Glo counter-screen, cardiomyocytes; details: Homo sapiens, Cardiomyocyte
Protocol: Human induced pluripotent stem cell-derived cardiomyocytes were obtained from Cellular Dynamics International (Madison, Wis.), and handled according to the manufacturer's instructions;
(§1) 696 confirmed hits from the confirmation screen were tested for profiling in a panel of 13 different cell types, using the same screening protocol described above (except in the case of embryonic stem cell-derived neural stem cells (NSCs) and mesenchymal stem cells (MSCs), for which the protocol is described below). As discussed below, compounds were tested either in dose-dependent multiple concentration manner or in single concentration manner. CSES2 and CSES2-SO2/3 cell lines and the early endodermal progenitors derived from this cell line (CSES2-SO2/3-differentiated) were screened at 8 concentrations ranging from 50 μM to 23 nM with 1:3 serial dilution steps. BJ-iPS28 cell line and the BJ fibroblasts from which it was derived were screened at 6 concentrations ranging from 50 μM to 200 nM with 1:3 serial dilution steps. Cardiomyocytes were screened in one concentration of 20 μM. HeLa and NTERA-2 cell lines were screened in duplicates of 20 μM. Kelly and Huh-7 were screened in triplicates of 20 μM. Hepatocytes were screened in duplicates of 20 μM in the original 96-well plates in which the cells arrived (40,000 cells per well, in 160 μl medium, the volumes of all reagents involved were adjusted accordingly). MSCs and NSCs were screened in duplicates of 12.5 μM.
(§2) In order to identify highly-selective cytotoxic inhibitors of hPSCs, the 696 cytotoxic inhibitors of hPSCs identified as described in Example 1 were counter-screened as described in the Materials and Methods section against other cell types, representative of all germ layers and developmental stages. Importantly, many of these cell types were differentiated from human ES or iPS cells. The screened cell types included ES-derived neural stem cells (NSCs), ES-derived mesenchymal stem cells (MSCs), ES-derived endodermal progenitor cells, ES-derived hepatocytes, iPS-derived cardiomyocytes, iPS-derived fibroblasts of origin (BJ fibroblasts), and three cancer cell lines: neuroblastoma (Kelly), cervical cancer (HeLa) and hepatocarcinoma (Huh7). The cell types and their relationship to stem cells are depicted schematically in FIG. 14.

[2] = tested on: CSES2-SO2/3 embryonic stem cells; test: CellTiter-Glo luminescent cell viability screen, CSES2-SO2/3; details: Homo sapiens; for EC50: 24 h; for inhibition at 20 µM: pluripotent stem cells
Protocol: (§3) 5,000 CSES2 cells were plated in 50 μl per well of mTeSR1 medium into black 384-well clear-bottom plates (Falcon BD) pre-coated with Matrigel™ using WellMate cell dispenser (Matrix, Hudson, N.H.). 24 hours after plating, medium was replaced with 25 μl of fresh medium and 25 μl of 40 μM compound medium solutions in 1% DMSO from the intermediate compound dilution plates. The plates were incubated at 37° C., in a 5% CO2 atmosphere, for the entire duration of the screen, apart from the time required for liquid handling. Cell viability was determined 24 hours after compound treatment using CellTiter-Glo® luminescent cell viability assay kits. 50 μl of CellTiter-Glo® reagent was added to each well of the assay plates and fully mixed. After incubation at room temperature for 15 minutes, 25 μl of liquid was transferred from each well into a white opaque-bottom 384-well plate (PerkinElmer), and luminescence was measured using an EnVision® plate reader (PerkinElmer). 16 neutral control wells (0.5% DMSO) and 8 positive control wells (5 μM amsacrine hydrochloride were used to normalize the compound effect. All liquid transfer steps were handled with a Biomek® FXP Laboratory Automation Workstation (Beckman Coulter, Fullerton, Calif.) and Muitidrop Combi liquid dispenser (Thermo Fisher, Waltham, Mass.). An Assay Analyzer (Genedata, Basel, Switzerland) was used for data pattern correction and calculation. The Spotfire software (Spotfire, Somerville, Mass.) was used for data illustration.
(§4) The compounds identified as hits from the primary screen were retested at a concentration of 20 μM against three pluripotent stem cell lines (CSES2, H9 and CSES2-SO2/3) for confirmation screens.
as §1
(§5) The raw intensity data for each well were background-corrected by subtraction of the median intensities across all positive control wells on the same plate, and used to calculate the inhibitory effect of each compound per cell line. A Genedata Assay Analyzer and Condoseo were used for data pattern correction, calculation and IC50 curve fitting. A Z′ factor was determined for each plate.

[3] = CellTiter-Glo counter-screen, hepatocytes; details: human, human embryonic stem cell-derived hepatocytes (Cellartis), read-out: Inhibition (%) ES-derived hepatocytes
Protocol: Human embryonic stem cell-derived hepatocytes were obtained from Cellartis (Goteborg, Sweden), and handled according to the manufacturer's instructions;
as §1, §2

[4] = tested on: CSES2 human embryonic stem cells; test: CellTiter-Glo luminescent cell viability screen, CSES2; details: for inhibition at 20 µM: pluripotent stem cells
Protocol: as §3, with “Cell viability was determined 24 hours after compound treatment using CellTiter-Glo® luminescent cell viability assay kits.” left out
as §4, §1, §5

[5] = tested on: neuroblastoma (Kelly) cells; test: CellTiter-Glo counter-screen, Kelly; details: Homo sapiens, cancer cells
Protocol: The neuroblastoma cell line Kelly was cultured in RPMI-1640 medium, supplemented with 15% fetal bovine serum (FBS), penicillin (50 U/ml) and streptomycin (50 μg/ml).
as §1, §2

[6] = 24 h, read-out: EC50 CSES2 24 hours
[7] = 48 h, read-out: EC50 CSES2 48 hours

With `CCCCCC(=O)NNc1ccc(Cl)cc1` [PluriSIn #10] the inhibition at 20 µM [1] was 12.6%, the EC50 [2] was 2490 nM and the inhibition at 20 µM [2] was 95.2%. It also gave an inhibition at 20 µM [3] of 3.6%, an EC50 [4, 6] of 1670 nM and an EC50 [4, 7] of 2050 nM. The inhibition at 20 µM [4] was 95% and the inhibition at 20 µM [5] was 5.7%.
`O=C(NNc1ccccc1)c1ccncc1` [PluriSIn #1, isonicotinic acid N′-phenylhydrazide] gave an inhibition at 20 µM [1] of 15%, an EC50 [2] of 3910 nM and an inhibition at 20 µM [2] of 90.8%. It also gave an inhibition at 20 µM [3] of 16.2%, an EC50 [4, 6] of 1540 nM and an EC50 [4, 7] of 1990 nM. The inhibition at 20 µM [4] was 92.1% and the inhibition at 20 µM [5] was -2%.
Work on `Cc1ccc(NNC(=O)C(O)(c2ccccc2)c2cccs2)cc1` (stereo not drawn) [PluriSIn #6, 2-hydroxy-2-(thiophen-2-yl)-2-phenylacetic acid 4-methyl-N′-phenylhydrazide] yielded an inhibition at 20 µM [1] of 2.6%, an EC50 [2] of 3750 nM and an inhibition at 20 µM [2] of 93.2%. For the same molecule, the inhibition at 20 µM [3] was -5.2%, the EC50 [4, 6] was 2550 nM and the EC50 [4, 7] was 1920 nM. It also gave an inhibition at 20 µM [4] of 94.8% and an inhibition at 20 µM [5] of 1.8%.
In the case of `Cc1oc2ccccc2c1/C=N/Nc1ccccc1` [PluriSIn #8], the inhibition at 20 µM [1] is reported as 8.9%, the EC50 [2] is reported as 3690 nM and the inhibition at 20 µM [2] is reported as 92.7%. It also gave an inhibition at 20 µM [3] of 14.6%, an EC50 [4, 6] of 2300 nM and an EC50 [4, 7] of 2390 nM. For the same molecule, the inhibition at 20 µM [4] was 98.6% and the inhibition at 20 µM [5] was -1%.
`Nc1cc(N)cc(COc2ccc(-c3ccccc3)cc2)c1` [PluriSIn #3] gave an inhibition at 20 µM [1] of -2.9%, an EC50 [2] of 2790 nM and an inhibition at 20 µM [2] of 97.4%. For the same molecule, the inhibition at 20 µM [3] was 2.8%, the EC50 [4, 6] was 2980 nM and the EC50 [4, 7] was 1320 nM. The inhibition at 20 µM [4] was 98% and the inhibition at 20 µM [5] was 2.3%.
`O=C(Nc1ccccc1)n1cc(F)c(=O)[nH]c1=O` [PluriSIn #2] gave an inhibition at 20 µM [1] of 4.4%, an EC50 [2] of 12400 nM and an inhibition at 20 µM [2] of 54.3%. For the same molecule, the inhibition at 20 µM [3] was 13.2%, the EC50 [4, 6] was 2030 nM and the EC50 [4, 7] was 2630 nM. The inhibition at 20 µM [4] was 84% and the inhibition at 20 µM [5] was 3%.
`CCN(CC)C(=O)C(=O)c1c(-c2ccccc2)[nH]c2c1sc1ccccc12` [PluriSIn #12] showed an inhibition at 20 µM [1] of -3.3%, an EC50 [2] of 6040 nM and an inhibition at 20 µM [2] of 92.9%. It also gave an inhibition at 20 µM [3] of -3.9%, an EC50 [4, 6] of 6850 nM and an EC50 [4, 7] of 5100 nM. The inhibition at 20 µM [4] was 93% and the inhibition at 20 µM [5] was -0.9%.
Work on `C/C(=N\O)NNc1ccc(Cl)cc1` [PluriSIn #9] yielded an inhibition at 20 µM [1] of 24.7%, an EC50 [2] of 4610 nM and an inhibition at 20 µM [2] of 89.2%. The inhibition at 20 µM [3] was 6.1%, the EC50 [4, 6] was 7960 nM and the EC50 [4, 7] was 2160 nM. It also gave an inhibition at 20 µM [4] of 102% and an inhibition at 20 µM [5] of 6%.
`C(=N\C1CCC(CC2CCCCC2)CC1)/OC1CCOC1` (stereo not drawn) [PluriSIn #15] gave an inhibition at 20 µM [1] of 3.8%, an EC50 [2] of 10000 nM and an inhibition at 20 µM [2] of 72.2%. The inhibition at 20 µM [3] was 18.8%, the EC50 [4, 6] was 2980 nM and the EC50 [4, 7] was 3270 nM. It also gave an inhibition at 20 µM [4] of 77.6% and an inhibition at 20 µM [5] of 9.9%.
In the case of `O=C(NCCc1ccc(O)cc1)c1ccc(N2CCCCC2)cc1` [PluriSIn #4], the inhibition at 20 µM [1] is reported as 14.1%, the EC50 [2] is reported as 4700 nM and the inhibition at 20 µM [2] is reported as 74.5%. For the same molecule, the inhibition at 20 µM [3] was 10.5%, the EC50 [4, 6] was 1110 nM and the EC50 [4, 7] was 594 nM. The inhibition at 20 µM [4] was 84.7% and the inhibition at 20 µM [5] was 9.4%.
Molecule `O=C(NN(C(=O)c1ccccc1)c1ccccc1)c1ccc(Cl)cc1` [PluriSIn #14] has an inhibition at 20 µM [1] of 3.9%, an EC50 [2] of 5520 nM and an inhibition at 20 µM [2] of 90.1%. For the same molecule, the inhibition at 20 µM [3] was -4.1%, the EC50 [4, 6] was 2030 nM and the EC50 [4, 7] was 2900 nM. It also gave an inhibition at 20 µM [4] of 90.1% and an inhibition at 20 µM [5] of 0%.
Molecule `O=S(=O)(NNc1ccccc1)c1ccc2ccccc2c1` [PluriSIn #5] has an inhibition at 20 µM [1] of 3.1%, an EC50 [2] of 3200 nM and an inhibition at 20 µM [2] of 92.3%. For the same molecule, the inhibition at 20 µM [3] was 0.3%, the EC50 [4, 6] was 3060 nM and the EC50 [4, 7] was 1270 nM. It also gave an inhibition at 20 µM [4] of 88.2% and an inhibition at 20 µM [5] of 0.2%.
Molecule `CC(=O)Oc1ccc(/C=C/c2ccc3c(c2)CCN3C)cc1` [PluriSIn #7] has an inhibition at 20 µM [1] of 6.8%, an EC50 [2] of 2740 nM and an inhibition at 20 µM [2] of 95.4%. For the same molecule, the inhibition at 20 µM [3] was 15.3%, the EC50 [4, 6] was 1980 nM and the EC50 [4, 7] was 749 nM. The inhibition at 20 µM [4] was 104% and the inhibition at 20 µM [5] was 26.7%.
For `CCOC(=O)CN1CC(=O)/C(=C\NNc2ccccc2)C1=O` [PluriSIn #11], the inhibition at 20 µM [1] was -5.8%, the EC50 [2] was 3620 nM and the inhibition at 20 µM [2] was 92.5%. The inhibition at 20 µM [3] was -4.7%, the EC50 [4, 6] was 3830 nM and the EC50 [4, 7] was 2580 nM. It also gave an inhibition at 20 µM [4] of 98.8% and an inhibition at 20 µM [5] of 3.3%.
With `O=C1C=CC=C1/C=C/C(=N\Nc1ccccc1)c1ccccc1` [PluriSIn #13] the inhibition at 20 µM [1] was 22.9%, the EC50 [2] was 3450 nM and the inhibition at 20 µM [2] was 94.6%. It also gave an inhibition at 20 µM [3] of 13.4%, an EC50 [4, 6] of 1540 nM and an EC50 [4, 7] of 1910 nM. It also gave an inhibition at 20 µM [4] of 101% and an inhibition at 20 µM [5] of 17.5%.
